Laboratory results reported in patent US20180362580A1, “CRYSTALLINE AND AMORPHOUS FORMS OF CARFILZOMIB” (Mylan Laboratories Limited, priority 2015, published 2018).
Entries after “also recorded” stand apart in the source; their conditions may differ.

Assay: Long term storage stability of the crystalline form, measured by PXRD
Assay type: physicochemical
Details: stored at 2° C. to 8° C. for one year; solid form checked by PXRD
Description: The polymorphs disclosed herein may be characterized by their X-ray powder diffraction (PXRD) patterns. Thus, samples of carfilzomib prepared by processes disclosed herein, including crystalline carfilzomib form M1 and amorphous carfilzomib, were analyzed by PXRD on a BRUKER D-8 DISCOVER powder diffractometer equipped with goniometer of θ/2θ configuration and LYNX EYE detector. The Cu-anode X-ray tube was operated at 40 kV and 30 mA. The experiments were conducted over the 2θ range of 2.0°-50.0°, 0.030° step size, and 0.4 seconds step time.
In some samples, individual impurities were present at levels less than 0.1%.

SMILES: CC(C)C[C@H](NC(=O)[C@H](CCc1ccccc1)NC(=O)CN1CCOCC1)C(=O)N[C@@H](Cc1ccccc1)C(=O)N[C@@H](CC(C)C)C(=O)[C@@]1(C)CO1 [crystalline carfilzomib form M1, (2S)-N-((S)-1-((S)-4-methyl-1-((R)-2-methyloxiran-2-yl)-1-oxopentan-2-ylcarbamoyl)-2-phenylethyl)-2-((S)-2-(2-morpholinoacetamido)-4-phenylbutanamido)-4-methylpentanamide]
- stability (measured by PXRD): exhibited stability; also recorded: stable
